Results as given in article PMC3319004 (Science Translational Medicine, 2011).

Legend:
NBSD (F1174L) xenografts = assay: In vivo tumor growth inhibition, NBSD xenografts; set-up: species or system CB17 scid mice
[1] = system: NB1643 (R1275Q) xenografts; assay: In vivo tumor growth inhibition, NB1643 xenografts; set-up: species or system CB17 scid mice
[2] = system: SH-SY5Y (F1174L) xenografts
R1275Q xenografts = assay: In vivo activity of GSK1838705A in xenografts
F1174L ALK-TKD = F1174L ALK-TKD (Homo sapiens, UniProt Q9UM73, F1174L)
[3] = 100mg/kg/day oral gavage for 4 weeks

## C[C@@H](Oc1cc(-c2cnn(C3CCNCC3)c2)cnc1N)c1c(Cl)ccc(F)c1Cl [crizotinib]
NBSD (F1174L) xenografts; 100mg/kg/day oral gavage for 4 weeks, p = 0.29
  tumor volume: failed to reduce tumor volume
NBSD (F1174L) xenografts; 100mg/kg/day, mean, p = 0.04
  extension of time to reach the study endpoint: 3.7 days
[1]; [3]
  tumor response: tumor regression within three weeks
[1]; 100mg/kg/day oral gavage, p < 0.0001
  tumor response over the fourth week of dosing: complete regression was sustained
[2]; [3]
  tumor regression: No tumor regression was observed
[2]; 100mg/kg/day, average, p < 0.0001
  extension of time taken to reach the study endpoint (tumor volume ≥ 1.5 cm^3): 7.7 days

## CNC(=O)c1c(F)cccc1Nc1nc(Nc2cc3c(cc2OC)CCN3C(=O)CN(C)C)nc2[nH]ccc12 [GSK1838705A]
R1275Q xenografts
  in vivo activity in xenografts: only showed significant in vivo activity against R1275Q xenografts

## CN[C@@H]1C[C@H]2O[C@@](C)([C@@H]1OC)n1c3ccccc3c3c4c(c5c6ccccc6n2c5c31)C(=O)NC4 [staurosporine]
F1174L ALK-TKD
  in vitro inhibition of ALK-TKD, F1174L compared with R1275Q-mutated ALK-TKD: impaired by the F1174L mutation
